From patent US20100166727A1, “S-Adenosylmethionine And Methylthioadensosine In Chemoprevention And Treatment Of Colon Polyps And Cancer” (UNIVERSITY OF SOUTHERN CALIFORNIA, priority 2007, published 2010)
Entries after “also recorded” stand apart in the source; their conditions may differ.

Tests used:
[1] = test system: spermine synthase (SPM syn); experiment: SPM syn expression by real-time PCR in HT-29 cells; type: cell-based, human; conditions: MTA treatment for 6 hrs
[2] = test system: ornithine decarboxylase (ODC); experiment: ODC expression by real-time PCR in HT-29 cells; type: cell-based, human; conditions: MTA treatment for 6 hrs
HT-29 cells = experiment: Cellular SAMe and MTA levels in HT-29 cells; type: cell-based, human; conditions: MTA 1 mM
Protocol: (§1) HT-29 and RKO cells were obtained from the Cell Culture Core of the USC Liver Disease Research Center and grown according to instructions provided by the American Type Culture Collection (ATCC, Rockville, Md.). Prior to treatment with growth factors, SAMe or MTA, medium was changed to 0.1% FBS overnight.
Cellular SAMe and MTA levels were measured (51) and polyamine levels were determined (52).

[3] = Tolerability of oral SAMe and MTA in mice; type: in vivo; conditions: oral in drinking water, 6 days; weight gain and water consumption similar to controls
Source text: SAMe and MTA were made fresh daily. The amount of water intake, body weight, and animal behavior were closely monitored. After 6 days, animals were sacrificed, intestine was cut open along the longitudinal axis, and mucosa was stripped from the intestine (46). Mucosa was weighed and a portion processed for SAMe measurement as described below, the rest snap frozen for subsequent RNA extraction.

MAT2A [4] = experiment: MAT2A expression in NCM460 cells; type: cell-based, human; conditions: 5 mM SAMe or 1 mM MTA, 6 hrs
Protocol: (§2) Total RNA was isolated by the EZgeno total RNA isolation kit (Genemega, San Giego, Calif.), and subjected to reverse transcription (RT) by using M-MLV Reverse transcriptase (Invitrogen). 2 μl of RT product was subjected to quantitative real-time PCR analysis. The primers and TaqMan probes for MAT2A, MAT2β and Universal PCR Master Mix were purchased from ABI (Foster City, Calif.). Hypoxanthine phosphoribosyl-transferase 1 (HPRT1) and ubiquitin C (UBC) were used as housekeeping genes (48). The thermal profile consisted of 1 cycle at 95° C. for 15 minutes followed by 40 cycles at 95° C. for 15 seconds and at 60° C. for 1 minute. The expression of MAT2A and MAT2β was checked by normalizing the Ct of MAT2A and MAT2β to that of the control housekeeping gene (HPRT1 or UBC) (49). The delta Ct obtained was used to find the relative expression of MAT genes according to the formula: Relative expression=2·^ΔCt, where ΔCt=ΔCt of MAT genes in colon cancer or treated cells—ΔCt of MAT genes in normal colon or control cells.
NCM460 cell line was originally established in 1996 as the first non-malignant colonic epithelial cell line derived from the transverse colon (43). When first developed, cells formed both monolayer and in suspension, express villin and cytokeratin staining (43). […] The NCM460 cells in monolayer have features of transverse colon crypt cells (69). […]

NCM460 cells = experiment: Toxicity and apoptosis in NCM460 normal colonic epithelial cells; type: cell-based, human
Protocol: In these experiments the total treatment duration was limited to 16 hrs to avoid the apoptotic effect. […] Apoptosis was measured by Hoechst staining or Annexin V and propidium iodide staining on flow cytometry.

SPD syn = SPD syn expression by real-time PCR in HT-29 cells; type: cell-based, human; conditions: MTA treatment for 6 hrs
MAT2A [5] = experiment: Intestinal MAT2A expression in mice given SAMe or MTA in drinking water; type: in vivo
Protocol: FIG. 30. Effects of oral SAMe and MTA on colonic mRNA levels of MAT2A, MAT2 β, and cFLIPL. Mice were fed SAMe (150 to 450 mg/kg/d) or MTA (75 or 150 mg/kg/d) in drinking water for 6 days. Colonic mucosa was scrapped off and gene expression measured by real-time PCR.
Three-month old male C57/B6 mice were fed ad libitum a standard diet (Harland Tekiad irradiated mouse diet 7912, Madison, Wis.), caged individually and had free access to water supplemented with SAMe ([…]), MTA (75 mg/kg/d), phosphate buffered saline (vehicle for SAMe) or DMSO (0.2%, vehicle for MTA) for 6 days. SAMe and MTA were made fresh daily. The amount of water intake, body weight, and animal behavior were closely monitored. After 6 days, animals were sacrificed, intestine was cut open along the longitudinal axis, and mucosa was stripped from the intestine (46). Mucosa was weighed and a portion processed for SAMe measurement as described below, the rest snap frozen for subsequent RNA extraction.
as §2

Bcl-xL = Bcl-xL mRNA level in HT-29 cells; type: cell-based, human; conditions: MTA 1 mM, 6 hrs
Protocol: SAMe and MTA induce apoptosis in liver cancer cells by the mitochondrial pathway (14). […] In liver cancer cells, SAMe and MTA induced selectively expression of Bcl-xs, a pro-apoptotic protein (67). We examined whether the same occurs in HT-29 cells. After 6 hrs of MTA (1 mM) treatment, Bcl-xL mRNA level fell by 53% (47±4% of control, results are mean±SE from 4 experiments, p<0.0005). […] This makes these agents particularly attractive in targeting colon cancer cells.

MAT2A [6] = experiment: MAT2A mRNA levels by real-time PCR in HT-29 cells; type: cell-based, human; conditions: SAMe 5 mM or MTA 1 mM, 6 hrs, HT29 cells
Protocol: as §1
RNA interference (RNAi) experiments were performed using Lipofectamine RNAiMax (Invitrogen) according to the manufacturer's instructions. Small interfering RNA (siRNA) oligonucleotides for MAT2A and scrambled siRNA were synthesized by the USC Norris Comprehensive Cancer Center Microchemical Core Laboratory, and annealed to form duplexes. Stealth RNAi for MAT2A and Stealth RNAi negative control duplexes were synthesized by Invitrogen (Carlsbad, Calif.). The following siRNA sequences were used: si-MAT2A #1, 5′-[…]-3′ (sense) and 5′-[…]-3′ (antisense); si-control with scrambled sequence (negative control siRNA having no perfect matches to known human genes), 5′-[…]dTdT-3′ (sense) and 5% […]dTdT-3′ (antisense); stealth RNAi-MAT2A #5, 5′-[…]-3′ (sense) and 5′-[…]-3′ (antisense). […]
as §2

c-FLIP = c-FLIP mRNA level by real-time PCR in HT-29 cells; type: cell-based, human; conditions: SAMe 2 mM, MTA 1 mM, 6 hrs, mean±SE
[7] = Stability of SAMe and MTA in culture medium without cells and in water; type: physicochemical; conditions: culture medium at 37° C., MTA 1 mM
Protocol: FIG. 12. […] SAMe (A) and MTA (B) levels were measured in culture medium without cells with starting SAMe concentrations ranging from 1 to 5 mM and MTA concentration at 1 mM.
To test whether the mitogens-induce increase in. MAT2A is to provide increased SAMe necessary for polyamine synthesis in growing cells, SAMe and polyamine levels were measured following treatment of HT-29 cells with mitogens.

MAT2β = experiment: Colonic MAT2β mRNA in mice fed SAMe or MTA; type: in vivo; conditions: 75 mg/kg/d MTA, 6 days
Protocol: FIG. 30. Effects of oral SAMe and MTA on colonic mRNA levels of MAT2A, MAT2 β, and […]. Mice were fed SAMe (150 to 450 mg/kg/d) or MTA (75 or 150 mg/kg/d) in drinking water for 6 days. Colonic mucosa was scrapped off and gene expression measured by real-time PCR.

[8] = 75 mg/kg/d in drinking water, six days

CSC[C@H]1O[C@@H](n2cnc3c(N)ncnc32)[C@H](O)[C@@H]1O [MTA, methylthioadenosine]
lowering of spermine synthase mRNA level [1]: 30%
lowering of ornithine decarboxylase (ODC) mRNA level [2]: 30%
MTA level (HT-29 cells; 6 hrs): 0.652 ± 0.123 nmol/mg protein
SAMe level (HT-29 cells; 6 hrs): 0.81 ± 0.09 nmol/mg protein
MTA level (HT-29 cells; 16 hrs): 0.689 ± 0.108 nmol/mg protein
SAMe level (HT-29 cells; 16 hrs): 0.54 ± 0.01 nmol/mg protein
tolerability / toxicity [3]: well tolerated; also recorded: no apparent toxicity
reduction of MAT2A expression (MAT2A [4]): 40%
toxicity in NCM460 cells (NCM460 cells; SAMe 0.2 to 2 mM, MTA 0.2 to 5 mM): did not cause any toxicity
apoptosis in NCM460 cells (NCM460 cells; SAMe up to 2 mM, MTA up to 5 mM): do not cause apoptosis
lowering of spermidine synthase mRNA level (SPD syn): 30%
MAT2A expression, colon (MAT2A [5]; [8]): 87 ± 20 % of control MAT2A mRNA levels
MAT2A expression, proximal small intestine (MAT2A [5]; [8]): 82 ± 2 % of control MAT2A mRNA levels
inhibition in colonic MAT2A mRNA level (MAT2A [5]; MTA 75 mg/kg/d, 6 days): 85%
decrease of MAT2A expression in proximal small intestine (MAT2A [5]; SAMe 150 mg/kg/d, MTA 75 mg/kg/d, six days): 20%
fall of Bcl-xL mRNA level (Bcl-xL): 53%
Bcl-xL mRNA level (Bcl-xL; mean±SE from 4 experiments): 47±4 % of control
reduction of baseline expression of MAT2A (MAT2A [6]): 60%
c-FLIP mRNA level (c-FLIP): 47±4 % of control
stability [7]: highly stable; also recorded: no change in 24 hrs
inhibition of MAT2β expression (MAT2β): 60%
